Each structure is given as a SMILES string. Inconclusive results and toxic doses are left out.

In this assay the test system is BDF1 mice, P388 leukemia ip, median survival T/C. The assay can be described thus: NCI In Vivo Anticancer Drug Screen. Data for tumor model P388 Leukemia (intraperitoneal) in B6D2F1 (BDF1) mice. Particulars: endpoint: median survival time, higher = longer survival. In outline:
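Vehicle-dosed animals serve as the reference; survival of compound-dosed, tumour-implanted mice is divided by it.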

Where [1] appears, read: dose: 100.0 mg/kg/injection, schedule: Q04DX003 (ip), vehicle: saline with Tween-80.
Setting [2] is: dose: 200.0 mg/kg/injection, schedule: Q04DX003 (ip), vehicle: saline with Tween-80.
Where [3] appears, read: dose: 400.0 mg/kg/injection, schedule: Q04DX003 (ip), vehicle: saline with Tween-80.
Where [4] appears, read: dose: 50.0 mg/kg/injection, schedule: Q04DX003 (ip), vehicle: saline with Tween-80.
[5] abbreviates: dose: 12.5 mg/kg/injection, schedule: Q04DX003 (ip), vehicle: saline with Tween-80.
Setting [6] is: dose: 25.0 mg/kg/injection, schedule: Q04DX003 (ip), vehicle: saline with Tween-80.
Where [7] appears, read: dose: 100.0 mg/kg/injection, schedule: Q01DX009 (ip), vehicle: other.
[8] abbreviates: dose: 100.0 mg/kg/injection, schedule: Q04DX003 (ip), vehicle: Klucel (hydroxypropylcellulose) (HPC).
The mark [9] stands for this setting: dose: 200.0 mg/kg/injection, schedule: Q04DX003 (ip), vehicle: Klucel (hydroxypropylcellulose) (HPC).
Setting [10] is: dose: 25.0 mg/kg/injection, schedule: Q01DX009 (ip), vehicle: saline with Tween-80.
Setting [11] is: dose: 6.25 mg/kg/injection, schedule: Q01DX009 (ip), vehicle: saline with Tween-80.
Where [12] appears, read: dose: 12.5 mg/kg/injection, schedule: Q01DX009 (ip), vehicle: saline with Tween-80.
[13] abbreviates: dose: 50.0 mg/kg/injection, schedule: Q01DX009 (ip), vehicle: saline with Tween-80.
The mark [14] stands for this setting: dose: 200.0 mg/kg/injection, schedule: Q01DX009 (ip), vehicle: saline with Tween-80.
Setting [15] is: dose: 400.0 mg/kg/injection, schedule: Q01DX009 (ip), vehicle: saline with Tween-80.
The mark [16] stands for this setting: dose: 100.0 mg/kg/injection, schedule: Q01DX009 (ip), vehicle: saline with Tween-80.

With `CCOC(=O)C(O)(NC(=O)N/N=C/c1ccccc1)C(=O)OCC`, the T/C is 104 % of control under setting [1], 112 % of control under setting [2] and 91 % of control under setting [3].
As to `COc1ccc2c(c1)C1CN(Cc3ccccc31)C2` (stereo unspecified), the T/C reads like this: (dose: 50.0 mg/kg/injection, schedule: Q01DX001 (ip), vehicle: saline with Tween-80) 96 % of control; (dose: 100.0 mg/kg/injection, schedule: Q01DX001 (ip), vehicle: saline with Tween-80) 99 % of control; (dose: 200.0 mg/kg/injection, schedule: Q01DX001 (ip), vehicle: saline with Tween-80) 89 % of control.
As for `O=CNC(Cc1cccc(N(CCCl)CCCl)c1)C(=O)O` (stereo unspecified), the T/C is, setting by setting: (dose: 11.0 mg/kg/injection, schedule: Q04DX003 (ip), vehicle: saline sonified) 94 % of control; (dose: 16.5 mg/kg/injection, schedule: Q04DX003 (ip), vehicle: saline sonified) 100 % of control; (dose: 25.0 mg/kg/injection, schedule: Q04DX003 (ip), vehicle: saline sonified) 122 % of control; under setting [4], 177 % of control; under setting [1], 272 % of control.
`CCCCCCCCCCC(N)P(=O)(O)O` (stereo unspecified): the T/C runs as follows: under setting [5], 92 % of control; under setting [6], 92 % of control; under setting [4], 92 % of control.
On to `CCCCCCCCCC(O)CCCCCC` (stereo unspecified), for which the T/C reads like this: under setting [7], 105 % of control; (dose: 100.0 mg/kg/injection, schedule: Q04DX003 (ip), vehicle: other) 95 % of control; (dose: 200.0 mg/kg/injection, schedule: Q04DX003 (ip), vehicle: other) 118 % of control.
For the molecule `CCCCc1c2c(nn1C(C)=O)C(=O)C=C(Nc1ccccc1)C2=O`, the T/C reads like this: under setting [1], 100 % of control; under setting [2], 99 % of control.
In the case of `CN(C)c1ccc(Cc2ccc(N(C)C)cc2[N+](=O)[O-])c([N+](=O)[O-])c1`, the T/C runs as follows: under setting [8], 104 % of control; under setting [9], 100 % of control; (dose: 400.0 mg/kg/injection, schedule: Q04DX003 (ip), vehicle: Klucel (hydroxypropylcellulose) (HPC)) 95 % of control.
In the case of `NCCCNCCCCNCCCN`, the T/C (dose: 50.0 mg/kg/injection, schedule: Q01DX001 (ip), vehicle: saline) was 110 % of control.
On to `C=C1C(=O)OC2/C=C(\C)CC(O)/C=C(/C)CC(OC(=O)C3(C)OC3C)C12` (stereo unspecified), for which the T/C is, setting by setting: (dose: 100.0 mg/kg/injection, schedule: Q04DX002 (ip), vehicle: Klucel (hydroxypropylcellulose) (HPC)) 111 % of control; (dose: 200.0 mg/kg/injection, schedule: Q04DX002 (ip), vehicle: Klucel (hydroxypropylcellulose) (HPC)) 113 % of control.
For the molecule `CN1CCC2=C(C1)C(N1CCCC1)CS(=O)(=O)O2` (stereo unspecified), the T/C is, setting by setting: (dose: 12.5 mg/kg/injection, schedule: Q04DX002 (ip), vehicle: saline) 100 % of control; (dose: 25.0 mg/kg/injection, schedule: Q04DX002 (ip), vehicle: saline) 102 % of control; (dose: 50.0 mg/kg/injection, schedule: Q04DX002 (ip), vehicle: saline) 99 % of control.
Turning to `CN(C)N=Nc1ccc(-c2ccccc2)cc1`, the T/C under setting [10] was 99 % of control.
For the molecule `CC(=O)SCCC(=O)O`, the T/C is, setting by setting: under setting [11], 109 % of control; (dose: 6.25 mg/kg/injection, schedule: Q04DX003 (ip), vehicle: saline with Tween-80) 100 % of control; under setting [12], 100 % of control; under setting [5], 95 % of control; under setting [10], 109 % of control; under setting [6], 100 % of control.
With `C[N+](C)(CCCCOCCCC[N+](C)(C)Cc1ccc([N+](=O)[O-])cc1)Cc1ccc([N+](=O)[O-])cc1`, the T/C is, setting by setting: (dose: 0.19 mg/kg/injection, schedule: Q01DX009 (ip), vehicle: saline with Tween-80) 100 % of control; (dose: 0.37 mg/kg/injection, schedule: Q01DX009 (ip), vehicle: saline with Tween-80) 104 % of control; (dose: 0.75 mg/kg/injection, schedule: Q01DX009 (ip), vehicle: saline with Tween-80) 108 % of control; (dose: 1.5 mg/kg/injection, schedule: Q01DX009 (ip), vehicle: saline with Tween-80) 96 % of control; (dose: 1.5 mg/kg/injection, schedule: Q04DX003 (ip), vehicle: saline with Tween-80) 109 % of control; (dose: 3.0 mg/kg/injection, schedule: Q04DX003 (ip), vehicle: saline with Tween-80) 104 % of control.
Turning to `C=C1CC2(CCC(C(C)(C)C)CC2)OC1=O` (stereo unspecified), the T/C was 105 % of control (dose: 100.0 mg/kg/injection, schedule: Q04DX002 (ip), vehicle: saline with Tween-80); 108 % of control (dose: 200.0 mg/kg/injection, schedule: Q04DX002 (ip), vehicle: saline with Tween-80); 97 % of control (dose: 400.0 mg/kg/injection, schedule: Q04DX002 (ip), vehicle: saline with Tween-80).
As for `O=C(Nc1cccc(C(=O)Nc2ccc(C3=NCCN3)cc2)c1)c1ccc(C2=NCCN2)cc1`, for the setting “dose: 16.5 mg/kg/injection, schedule: Q01DX009 (ip), vehicle: saline”, the T/C is 122 % of control.
Take `COC1OC2COC(c3ccccc3)OC2C2OC12` (stereo unspecified): the T/C was 109 % of control under setting [11]; 99 % of control under setting [12]; 96 % of control under setting [10]; 100 % of control under setting [13]; 109 % of control under setting [1]; 100 % of control under setting [2]. For the same molecule, under setting [3], the T/C is 100 % of control.
On to `O=C(O)COc1ccc(-c2ccc(Br)cc2)cc1`, for which the T/C under setting [13] is 90 % of control, the T/C under setting [14] was 100 % of control and the T/C under setting [15] is 101 % of control.
Consider `S=C1NCCS1`, for which the T/C was 97 % of control (dose: 22.5 mg/kg/injection, schedule: Q01DX009 (ip), vehicle: saline with Tween-80); 97 % of control (dose: 45.0 mg/kg/injection, schedule: Q01DX009 (ip), vehicle: saline with Tween-80); 92 % of control (dose: 90.0 mg/kg/injection, schedule: Q01DX009 (ip), vehicle: saline with Tween-80).
Turning to `COc1ccc(C=Nc2ccccc2N=Cc2ccc(OC)c(OC)c2)cc1OC`, the T/C is 113 % of control under setting [16]; 110 % of control under setting [1]; 100 % of control under setting [14]; 110 % of control under setting [2]; 100 % of control under setting [15]; 100 % of control under setting [3].
For `CCCN(CCC)c1ccc(C=O)cc1`, the T/C by setting is: (dose: 50.0 mg/kg/injection, schedule: Q04DX003 (ip), vehicle: Klucel (hydroxypropylcellulose) (HPC)) 100 % of control; under setting [8], 105 % of control; under setting [9], 94 % of control.
`CCOC(=O)CCCN(c1[nH]c(C)c(C)c1C#N)S(=O)(=O)c1ccc(C)cc1`: the T/C under setting [10] was 109 % of control; the T/C under setting [13] is 100 % of control; the T/C under setting [16] was 113 % of control; the T/C under setting [14] was 104 % of control; the T/C under setting [2] was 87 % of control; the T/C under setting [3] was 95 % of control.
Consider `O=C(Cn1ccc(O)cc1=O)c1ccc(Cl)s1`, for which the T/C runs as follows: under setting [16], 98 % of control; under setting [14], 93 % of control; under setting [15], 104 % of control.
Consider `C=CC1C2CCC(C2)C1Cl` (stereo unspecified), for which the T/C is 100 % of control (dose: 50.0 mg/kg/injection, schedule: Q01DX009 (ip), vehicle: other); 104 % of control under setting [7]; 107 % of control (dose: 200.0 mg/kg/injection, schedule: Q01DX009 (ip), vehicle: other).
`O=[N+]([O-])c1ccc(S(=O)(=O)c2ccc([N+](=O)[O-])cc2)cc1`: the T/C under setting [4] was 101 % of control, the T/C under setting [2] is 110 % of control and the T/C under setting [3] was 93 % of control.
Regarding `CC1(C)CCC(C#N)=C1N`, the T/C reads like this: under setting [12], 95 % of control; under setting [10], 91 % of control; under setting [13], 95 % of control.
As for `CSCSCC(CO)NS(=O)(=O)c1ccc(C)cc1` (stereo unspecified), the T/C under setting [1] was 100 % of control, the T/C under setting [2] was 100 % of control and the T/C under setting [3] was 100 % of control.
In the case of `COc1ccc2c(c1)-c1nn(CCO)c(-c3ccncc3)c1CC2`, the T/C reads like this: (dose: 100.0 mg/kg/injection, schedule: Q04DX002 (ip), vehicle: DMSO) 100 % of control; (dose: 200.0 mg/kg/injection, schedule: Q04DX002 (ip), vehicle: DMSO) 99 % of control; (dose: 400.0 mg/kg/injection, schedule: Q04DX002 (ip), vehicle: DMSO) 103 % of control.

Source of the values: PubChem BioAssay AID328 (DTP/NCI, 2004).
